Test system: MV-4-11 cells
Test: Gene expression microarray analysis (Affymetrix PrimeView) and GSEA
Type: cell-based, human
Set-up: RFU PODN (11730768_x_at) / Fold change /veh PODN (11730768_x_at) / RFU LINC00158 (11744669_a_at) / Fold change /veh LINC00158 (11744669_a_at) / RFU DUSP10 (11751237_a_at) / Fold change /veh DUSP10 (11751237_a_at) / RFU ID3 (11757404_x_at) / Fold change /veh ID3 (11757404_x_at) / RFU PLEKHG5 (11737974_s_at) / Fold change /veh PLEKHG5 (11737974_s_at) / RFU LRRC4B (11730491_at) / Fold change /veh LRRC4B (11730491_at) / RFU GIMAP4 (11747438_a_at) / Fold change /veh GIMAP4 (11747438_a_at) / RFU KRT8 (11758183_x_at) / Fold change /veh KRT8 (11758183_x_at) / RFU CNN1 (11734310_a_at) / Fold change /veh CNN1 (11734310_a_at) / RFU VPS37D (11726825_at) / Fold change /veh VPS37D (11726825_at) / RFU C10orf10 (11716522_x_at) / Fold change /veh C10orf10 (11716522_x_at) / RFU KIR2DL2 /// KIR2DL4 /// KIR2DL5A /// KIR2DL5B /// KIR2DS1 /// KIR2DS2 /// KIR2DS3 /// KIR2DS4 /// KIR3DL3 /// KIR3DL3 /// KIR3DS1 (11738374_at) / Fold change /veh KIR2DL2 /// KIR2DL4 /// KIR2DL5A /// KIR2DL5B /// KIR2DS1 /// KIR2DS2 /// KIR2DS3 /// KIR2DS4 /// KIR3DL3 /// KIR3DL3 /// KIR3DS1 (11738374_at) / RFU C1QL1 (11718748_at) / Fold change /veh C1QL1 (11718748_at) / RFU TMPRSS4 (11747572_a_at) / Fold change /veh TMPRSS4 (11747572_a_at) / RFU HAMP (11756126_x_at) / Fold change /veh HAMP (11756126_x_at) / RFU RNFT2 (11725882_a_at) / Fold change /veh RNFT2 (11725882_a_at) / RFU NR4A2 (11747474_a_at) / Fold change /veh NR4A2 (11747474_a_at) / RFU ABCC12 (11746883_a_at) / Fold change /veh ABCC12 (11746883_a_at) / RFU TMEM136 (11760407_x_at) / Fold change /veh TMEM136 (11760407_x_at) / RFU CLDN22 /// WWC2 (11732394_at) / Fold change /veh CLDN22 /// WWC2 (11732394_at) / RFU HLA-DPB1 (11760878_x_at) / Fold change /veh HLA-DPB1 (11760878_x_at) / RFU SPINT1 (11716480_a_at) / Fold change /veh SPINT1 (11716480_a_at) / RFU GAP43 (11754022_s_at) / Fold change /veh GAP43 (11754022_s_at) / RFU A4GNT (11735810_at) / Fold change /veh A4GNT (11735810_at) / RFU PRB3 (11715151_x_at) / Fold change /veh PRB3 (11715151_x_at) / RFU TUBB4B (11761932_at) / Fold change /veh TUBB4B (11761932_at) / RFU CAPN14 (11732068_a_at) / Fold change /veh CAPN14 (11732068_a_at) / RFU TMCC2 (11721928_a_at) / Fold change /veh TMCC2 (11721928_a_at) / RFU IRGQ (11745062_a_at) / Fold change /veh IRGQ (11745062_a_at) / RFU FAM174B (11720279_a_at) / Fold change /veh FAM174B (11720279_a_at) / RFU TMPRSS4 (11748680_a_at) / Fold change /veh TMPRSS4 (11748680_a_at) / RFU FAM212B (11763350_a_at) / Fold change /veh FAM212B (11763350_a_at) / RFU PLEKHG5 (11743358_a_at) / Fold change /veh PLEKHG5 (11743358_a_at) / RFU ZSCAN30 (11745921_a_at) / Fold change /veh ZSCAN30 (11745921_a_at) / RFU CMKLR1 (11741424_a_at) / Fold change /veh CMKLR1 (11741424_a_at) / RFU LOC101060620 /// MAPK8IP1 (11723275_at) / Fold change /veh LOC101060620 /// MAPK8IP1 (11723275_at) / RFU SPTSSB (11747773_x_at) / Fold change /veh SPTSSB (11747773_x_at) / RFU PRSS12 (11739890_at) / Fold change /veh PRSS12 (11739890_at) / RFU BIN1 (11741810_x_at) / Fold change /veh BIN1 (11741810_x_at) / RFU WNT11 (11732464_a_at) / Fold change /veh WNT11 (11732464_a_at) / RFU C10orf10 (11716521_a_at) / Fold change /veh C10orf10 (11716521_a_at) / RFU C5orf56 (11738089_at) / Fold change /veh C5orf56 (11738089_at) / RFU CYB561 (11721691_x_at) / Fold change /veh CYB561 (11721691_x_at) / RFU ANKRD19P (11752326_a_at) / Fold change /veh ANKRD19P (11752326_a_at) / RFU OR2T12 /// OR2T33 /// OR2T8 (11738714_s_at) / Fold change /veh OR2T12 /// OR2T33 /// OR2T8 (11738714_s_at) / RFU VCAN (11748164_a_at) / Fold change /veh VCAN (11748164_a_at) / RFU JSRP1 (11732532_at) / Fold change /veh JSRP1 (11732532_at) / RFU KRTAP10-11 (11738290_x_at) / Fold change /veh KRTAP10-11 (11738290_x_at) / RFU MYO3A (11730013_a_at) / Fold change /veh MYO3A (11730013_a_at) / RFU EBF3 (11725865_a_at) / Fold change /veh EBF3 (11725865_a_at) / RFU CAMK2N1 (11719241_x_at) / Fold change /veh CAMK2N1 (11719241_x_at) / RFU C5orf56 (11738088_a_at) / Fold change /veh C5orf56 (11738088_a_at) / RFU OLFML3 (11715873_a_at) / Fold change /veh OLFML3 (11715873_a_at) / RFU LOC100653217 /// NTM (11731650_a_at) / Fold change /veh LOC100653217 /// NTM (11731650_a_at) / RFU MAPK11 (11762145_a_at) / Fold change /veh MAPK11 (11762145_a_at) / RFU FIZ1 (11724087_x_at) / Fold change /veh FIZ1 (11724087_x_at) / RFU OASL (11726364_x_at) / Fold change /veh OASL (11726364_x_at) / RFU SOX15 (11748057_x_at) / Fold change /veh SOX15 (11748057_x_at) / RFU CD79A (11719716_a_at) / Fold change /veh CD79A (11719716_a_at) / RFU HIST1H1D (11736915_at) / Fold change /veh HIST1H1D (11736915_at) / RFU CASKIN2 (11723855_a_at) / Fold change /veh CASKIN2 (11723855_a_at) / RFU LOC730098 (11760151_x_at) / Fold change /veh LOC730098 (11760151_x_at) / RFU OR4N2 (11742367_at) / Fold change /veh OR4N2 (11742367_at) / RFU PRRT2 (11749266_a_at) / Fold change /veh PRRT2 (11749266_a_at) / RFU SNX32 (11753110_a_at) / Fold change /veh SNX32 (11753110_a_at) / RFU CDHR5 (11726645_a_at) / Fold change /veh CDHR5 (11726645_a_at) / RFU RCAN1 (11760418_a_at) / Fold change /veh RCAN1 (11760418_a_at) / RFU FAM167A (11723789_a_at) / Fold change /veh FAM167A (11723789_a_at) / RFU FAM26E (11764081_at) / Fold change /veh FAM26E (11764081_at) / RFU ISYNA1 (11749810_s_at) / Fold change /veh ISYNA1 (11749810_s_at) / RFU ACY1 (11761880_at) / Fold change /veh ACY1 (11761880_at) / RFU 11764098_at / Fold change /veh 11764098_at / RFU SAMD14 (11745864_x_at) / Fold change /veh SAMD14 (11745864_x_at) / RFU NPB (11741838_a_at) / Fold change /veh NPB (11741838_a_at) / RFU TMPRSS6 (11731388_a_at) / Fold change /veh TMPRSS6 (11731388_a_at) / RFU KRTAP10-2 (11738614_at) / Fold change /veh KRTAP10-2 (11738614_at) / RFU ARHGAP8 /// PRR5-ARHGAP8 (11727945_x_at) / Fold change /veh ARHGAP8 /// PRR5-ARHGAP8 (11727945_x_at) / RFU KRTAP5-7 /// NADSYN1 (11734609_at) / Fold change /veh KRTAP5-7 /// NADSYN1 (11734609_at) / RFU RASL12 (11751679_a_at) / Fold change /veh RASL12 (11751679_a_at) / RFU CDKN2B (11736163_a_at) / Fold change /veh CDKN2B (11736163_a_at) / RFU PRF1 (11729649_at) / Fold change /veh PRF1 (11729649_at) / RFU, ZNF638 /// ZNF638-IT1 / Fold change vs veh, ZNF638 /// ZNF638-IT1 / RFU, PANK3 / Fold change vs veh, PANK3 / RFU, SH3YL1 / Fold change vs veh, SH3YL1 / RFU, ZEB2 / Fold change vs veh, ZEB2 / RFU, NRIP1 / Fold change vs veh, NRIP1 / RFU, PTTG1IP / Fold change vs veh, PTTG1IP / RFU, CAPN2 / Fold change vs veh, CAPN2 / RFU, MED14 / Fold change vs veh, MED14 / RFU, SNORA58 / Fold change vs veh, SNORA58 / RFU, C1orf63 / Fold change vs veh, C1orf63 / RFU, LRRFIP1 / Fold change vs veh, LRRFIP1 / RFU, NDUFAF7 / Fold change vs veh, NDUFAF7 / RFU, SLC12A2 / Fold change vs veh, SLC12A2 / RFU, IBTK / Fold change vs veh, IBTK / RFU, ESF1 / Fold change vs veh, ESF1 / Fold change vs veh, TMEM50B / RFU, TAOK1 / Fold change vs veh, TAOK1 / RFU, ACBD3 / Fold change vs veh, ACBD3 / RFU, TMA16 / Fold change vs veh, TMA16 / RFU, RWDD3 / Fold change vs veh, RWDD3 / RFU, BCAT1 / Fold change vs veh, BCAT1 / RFU, EDEM3 / Fold change vs veh, EDEM3 / RFU, TMEM33 / Fold change vs veh, TMEM33 / RFU, WDR75 / Fold change vs veh, WDR75 / RFU, AHCTF1 / Fold change vs veh, AHCTF1 / RFU, TFRC / Fold change vs veh, TFRC / RFU, ZDHHC17 / Fold change vs veh, ZDHHC17 / RFU, NOM1 / Fold change vs veh, NOM1 / RFU, ARL8B / Fold change vs veh, ARL8B / RFU, ZBTB11 / Fold change vs veh, ZBTB11 / RFU, TAMM41 / Fold change vs veh, TAMM41 / RFU, KIAA1704 /// LOC100996395 / Fold change vs veh, KIAA1704 /// LOC100996395 / RFU, ING1 / Fold change vs veh, ING1 / RFU, TRMT61B / Fold change vs veh, TRMT61B / RFU, FUBP3 / Fold change vs veh, FUBP3 / RFU, TP53 / Fold change vs veh, TP53 / RFU, TNKS2 / Fold change vs veh, TNKS2 / RFU, ZFP14 / Fold change vs veh, ZFP14 / RFU, ACTR2 / Fold change vs veh, ACTR2 / RFU, PPP3R1 / Fold change vs veh, PPP3R1 / RFU, PIK3R1 / Fold change vs veh, PIK3R1 / RFU, HNRNPA1 / Fold change vs veh, HNRNPA1 / RFU, RNF170 / Fold change vs veh, RNF170 / RFU, ZNF28 / Fold change vs veh, ZNF28 / RFU, RNGTT / Fold change vs veh, RNGTT / RFU, OGT / Fold change vs veh, OGT / RFU, BRD1 / Fold change vs veh, BRD1 / RFU, MARS / Fold change vs veh, MARS / RFU, ZNF655 / Fold change vs veh, ZNF655 / RFU, FAHD1 / Fold change vs veh, FAHD1 / RFU, BDP1 / Fold change vs veh, BDP1 / RFU, LRRCC1 / Fold change vs veh, LRRCC1 / RFU, ARID1A / Fold change vs veh, ARID1A / RFU, ZNF146 / Fold change vs veh, ZNF146 / RFU, ZNF330 / Fold change vs veh, ZNF330 / RFU, GPN3 / Fold change vs veh, GPN3 / RFU, C9orf123 / Fold change vs veh, C9orf123 / RFU, N4BP2L2 / Fold change vs veh, N4BP2L2 / RFU, ARFIP1 / Fold change vs veh, ARFIP1 / RFU, FAM179B / Fold change vs veh, FAM179B / RFU, BCL10 / Fold change vs veh, BCL10 / RFU, UHRF1BP1L / Fold change vs veh, UHRF1BP1L / RFU, BET1 / Fold change vs veh, BET1 / RFU, CNOT2 / Fold change vs veh, CNOT2 / RFU, ZNF268 / Fold change vs veh, ZNF268 / Fold change vs veh, ZNF507 / RFU, DGCR2 / Fold change vs veh, DGCR2 / RFU, WDSUB1 / Fold change vs veh, WDSUB1 / Fold change vs veh, HSP90B1 /// MIR3652 / RFU, ADSS / Fold change vs veh, ADSS / RFU, GK / Fold change vs veh, GK / RFU, ZNF148 / Fold change vs veh, ZNF148 / RFU, TAF9 / Fold change vs veh, TAF9 / RFU, SLC1A5 / Fold change vs veh, SLC1A5 / RFU, SLMO2 / Fold change vs veh, SLMO2 / RFU, ABCC4 / Fold change vs veh, ABCC4 / RFU, LOC101060439 /// RAP1B / Fold change vs veh, LOC101060439 /// RAP1B / RFU, RFX7 / Fold change vs veh, RFX7 / RFU, GTPBP10 / Fold change vs veh, GTPBP10 / RFU, CNEP1R1 / Fold change vs veh, CNEP1R1 / RFU, BIVM-ERCC5 /// ERCC5 / Fold change vs veh, BIVM-ERCC5 /// ERCC5 / RFU, ILF3 / Fold change vs veh, ILF3 / RFU 11762660_at / Fold change /veh 11762660_at / RFU VCAN (11757783_s_at) / Fold change /veh VCAN (11757783_s_at) / RFU DDX43 (11728927_at) / Fold change /veh DDX43 (11728927_at) / RFU KRT8 (11758188_x_at) / Fold change /veh KRT8 (11758188_x_at) / RFU NKD1 (11759106_at) / Fold change /veh NKD1 (11759106_at) / RFU SRD5A1 (11742802_a_at) / Fold change /veh SRD5A1 (11742802_a_at) / RFU TPSAB1 /// TPSB2 (11721975_s_at) / Fold change /veh TPSAB1 /// TPSB2 (11721975_s_at) / RFU GSTM3 (11746129_a_at) / Fold change /veh GSTM3 (11746129_a_at) / RFU IL23R (11737362_x_at) / Fold change /veh IL23R (11737362_x_at) / RFU TMEM51 (11727254_a_at) / Fold change /veh TMEM51 (11727254_a_at) / RFU PIWIL2 (11732686_x_at) / Fold change /veh PIWIL2 (11732686_x_at) / RFU ORM1 (11744905_x_at) / Fold change /veh ORM1 (11744905_x_at) / RFU CCDC152 (11743942_at) / Fold change /veh CCDC152 (11743942_at) / RFU ECM1 (11717891_a_at) / Fold change /veh ECM1 (11717891_a_at) / RFU IL23R (11748794_a_at) / Fold change /veh IL23R (11748794_a_at) / RFU TNFAIP8L3 (11732012_x_at) / Fold change /veh TNFAIP8L3 (11732012_x_at) / RFU MBOAT4 (11741988_at) / Fold change /veh MBOAT4 (11741988_at) / RFU 11764193_at / Fold change /veh 11764193_at / RFU TMEM53 (11763286_at) / Fold change /veh TMEM53 (11763286_at) / RFU MAGEB2 (11727129_at) / Fold change /veh MAGEB2 (11727129_at) / RFU TMEM200A (11744735_a_at) / Fold change /veh TMEM200A (11744735_a_at) / RFU CCDC152 (11751479_a_at) / Fold change /veh CCDC152 (11751479_a_at) / RFU FAM211A (11726209_a_at) / Fold change /veh FAM211A (11726209_a_at) / RFU RGS16 (11746705_a_at) / Fold change /veh RGS16 (11746705_a_at) / RFU VCAN (11755009_s_at) / Fold change /veh VCAN (11755009_s_at) / RFU RHOB (11743442_s_at) / Fold change /veh RHOB (11743442_s_at) / RFU RGS16 (11720943_a_at) / Fold change /veh RGS16 (11720943_a_at) / RFU RGS16 (11720944_at) / Fold change /veh RGS16 (11720944_at) / RFU, VPS4B / Fold change vs veh, VPS4B / RFU, CREB1 / Fold change vs veh, CREB1 / RFU, DNAJC13 / Fold change vs veh, DNAJC13 / RFU, GNAQ / Fold change vs veh, GNAQ / RFU, CDK5R1 / Fold change vs veh, CDK5R1 / RFU, ZRANB3 / Fold change vs veh, ZRANB3 / RFU, CUL4A / Fold change vs veh, CUL4A / RFU, CCNY / Fold change vs veh, CCNY / RFU, UFL1 / Fold change vs veh, UFL1 / RFU, COG3 / Fold change vs veh, COG3 / RFU, DIAPH2 / Fold change vs veh, DIAPH2 / RFU, SKA2 / Fold change vs veh, SKA2 / RFU, AFF3 / Fold change vs veh, AFF3 / RFU, LMF1 / Fold change vs veh, LMF1 / RFU, IPO11 / Fold change vs veh, IPO11 / RFU, DFFB / Fold change vs veh, DFFB / RFU, FOXP1 / Fold change vs veh, FOXP1 / RFU, CARD8 / Fold change vs veh, CARD8 / RFU, STRN3 / Fold change vs veh, STRN3 / RFU, ADK / Fold change vs veh, ADK / RFU, RASSF2 / Fold change vs veh, RASSF2 / RFU, WIPF1 / Fold change vs veh, WIPF1 / RFU, LARP1B / Fold change vs veh, LARP1B / RFU, RASA1 / Fold change vs veh, RASA1 / RFU, RB1 / Fold change vs veh, RB1 / RFU, PPFIA1 / Fold change vs veh, PPFIA1 / RFU, MAT2A / Fold change vs veh, MAT2A / RFU, CCT5 / Fold change vs veh, CCT5 / RFU, WDR92 / Fold change vs veh, WDR92 / RFU, CUX1 / Fold change vs veh, CUX1 / RFU, TTC7A / Fold change vs veh, TTC7A / RFU, TMEM135 / Fold change vs veh, TMEM135 / RFU, DEPTOR / Fold change vs veh, DEPTOR / RFU, CPM / Fold change vs veh, CPM / RFU, DNAJB6 / Fold change vs veh, DNAJB6 / RFU, CACNA2D3 / Fold change vs veh, CACNA2D3 / RFU, DTX4 / Fold change vs veh, DTX4 / RFU, TFCP2 / Fold change vs veh, TFCP2 / RFU, GMCL1 /// GMCL1P1 / Fold change vs veh, GMCL1 /// GMCL1P1 / RFU, AEBP2 / Fold change vs veh, AEBP2 / RFU, SNHG1 /// SNORD22 /// SNORD25 /// SNORD26 /// SNORD27 /// SNORD28 /// SNORD29 /// SNORD31 / Fold change vs veh, SNHG1 /// SNORD22 /// SNORD25 /// SNORD26 /// SNORD27 /// SNORD28 /// SNORD29 /// SNORD31 / Fold change (Aza/veh), C12orf56 (ProbeSet 11735607_a_at) / Fold change (ACY-1035/veh), C12orf56 (ProbeSet 11735607_a_at) / Fold change (Aza/veh), FGFR1OP (ProbeSet 11751329_s_at) / Fold change (ACY-1035/veh), FGFR1OP (ProbeSet 11751329_s_at) / Fold change (Aza/veh), VPS36 (ProbeSet 11739960_a_at) / Fold change (ACY-1035/veh), VPS36 (ProbeSet 11739960_a_at) / RFU SYPL1 (11715823_x_at) / Fold change /veh SYPL1 (11715823_x_at) / RFU IGFBP7 (11715501_s_at) / Fold change /veh IGFBP7 (11715501_s_at) / RFU REEP3 (11722064_at) / Fold change /veh REEP3 (11722064_at) / RFU IGLL1 (11728026_x_at) / Fold change /veh IGLL1 (11728026_x_at): dose or concentration left out as unconfirmed
Conditions: MV-4-11 cells, 48 hours

Q: For Nc1ncn([C@@H]2O[C@H](CO)[C@@H](O)[C@H]2O)c(=O)n1 [azacitidine], which “Fold change /veh FAM167A (11723789_a_at)” value is on record?
A: 1.19

Reference: PMC5218480 (PLoS ONE, 2017)
